The values below come from ChEMBL document CHEMBL1134264, “Identification of a subtype selective human PPARalpha agonist through parallel-array synthesis” (Bioorg Med Chem Lett, 2001).

Structures are written as SMILES. Several values for one entry are separate records, joined by “and”; a condition that tells them apart may be missing. Identical values can stand only once. Activity calls are given as the source filed them. No cut-off for these calls is given here.

As a reminder, the EC50 is the concentration at which the effect is half-maximal.

The test system of assay [1] is Cricetinae gen. sp. In words: In vivo triglyceride lowering activity in fat-fed hamsters at a dose of 3 mg/kg, po for 7 days; not active. Type of assay: functional, organism-based. Also noted: dose 3 mg/kg. The conditions noted are these: Cricetulus griseus.
In assay [2] the target is T1, Peroxisome proliferator-activated receptor gamma (Homo sapiens, UniProt P37231).
T1 sequence (P37231 whole entry): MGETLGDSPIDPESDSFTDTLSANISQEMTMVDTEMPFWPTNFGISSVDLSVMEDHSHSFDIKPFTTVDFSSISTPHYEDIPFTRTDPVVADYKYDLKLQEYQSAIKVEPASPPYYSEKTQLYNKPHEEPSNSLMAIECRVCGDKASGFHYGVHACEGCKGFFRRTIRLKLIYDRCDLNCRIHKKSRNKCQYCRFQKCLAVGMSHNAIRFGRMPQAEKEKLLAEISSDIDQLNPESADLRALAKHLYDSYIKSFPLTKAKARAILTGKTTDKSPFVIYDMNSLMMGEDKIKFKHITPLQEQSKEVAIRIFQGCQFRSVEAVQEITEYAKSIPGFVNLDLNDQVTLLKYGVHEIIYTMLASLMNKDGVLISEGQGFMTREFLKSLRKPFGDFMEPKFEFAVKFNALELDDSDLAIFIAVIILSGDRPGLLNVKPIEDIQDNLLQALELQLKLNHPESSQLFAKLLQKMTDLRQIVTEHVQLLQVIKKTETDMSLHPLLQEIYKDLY
In words: In vitro transcriptional activation in CV-1 cells expressing human Gal4-PPAR gamma ligand binding domain. The format is cell-based.

For assay [3], the target named is T2, Peroxisome proliferator-activated receptor delta (Homo sapiens, UniProt Q03181).
T2 sequence (Q03181 whole entry): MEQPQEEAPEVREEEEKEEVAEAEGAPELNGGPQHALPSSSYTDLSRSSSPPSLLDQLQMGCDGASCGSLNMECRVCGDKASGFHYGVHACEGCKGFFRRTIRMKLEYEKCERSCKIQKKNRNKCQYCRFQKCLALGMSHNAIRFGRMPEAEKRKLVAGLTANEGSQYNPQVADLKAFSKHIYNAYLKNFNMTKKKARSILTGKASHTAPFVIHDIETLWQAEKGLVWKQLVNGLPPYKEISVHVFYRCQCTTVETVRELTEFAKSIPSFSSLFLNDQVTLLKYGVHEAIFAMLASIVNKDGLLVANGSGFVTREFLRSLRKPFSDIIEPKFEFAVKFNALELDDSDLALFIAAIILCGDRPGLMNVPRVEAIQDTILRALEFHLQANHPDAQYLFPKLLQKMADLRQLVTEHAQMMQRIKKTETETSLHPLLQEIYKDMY
In words: In vitro transcriptional activation in CV-1 cells expressing human Gal4-PPAR delta ligand binding domain. Type of assay: cell-based.

Assay [4] addresses T3, Peroxisome proliferator-activated receptor alpha (Homo sapiens, UniProt Q07869).
T3 sequence (Q07869 whole entry): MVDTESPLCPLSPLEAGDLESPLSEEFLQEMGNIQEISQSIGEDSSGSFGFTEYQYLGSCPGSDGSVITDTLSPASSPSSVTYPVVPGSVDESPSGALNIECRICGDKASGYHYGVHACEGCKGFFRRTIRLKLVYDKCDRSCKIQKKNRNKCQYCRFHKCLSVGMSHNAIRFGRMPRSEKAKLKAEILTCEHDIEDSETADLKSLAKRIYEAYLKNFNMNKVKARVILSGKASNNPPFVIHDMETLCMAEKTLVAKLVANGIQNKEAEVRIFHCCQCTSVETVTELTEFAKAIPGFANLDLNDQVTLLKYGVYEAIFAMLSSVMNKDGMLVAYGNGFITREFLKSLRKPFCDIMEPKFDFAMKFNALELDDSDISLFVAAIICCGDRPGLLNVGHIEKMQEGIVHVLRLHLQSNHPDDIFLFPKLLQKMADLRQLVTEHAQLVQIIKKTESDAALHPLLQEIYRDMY
Description: In vitro transcriptional activation in CV-1 cells expressing human Gal4-PPAR alpha ligand binding domain

Assay [5] deals with Cricetinae gen. sp. The assay can be described thus: In vivo triglyceride lowering activity in fat-fed hamsters at a dose of 3 mg/kg, po for 7 days. The format is functional.
Assay [6] concerns Rattus norvegicus. The assay can be described thus: In vivo triglyceride lowering activity in cholesterol/cholic acid fed rats at 3 mg/kg peroral dose for 4 days. The format is functional. As to conditions: route oral.
The test system of assay [7] is Rattus norvegicus. The assay can be described thus: In vivo decrease in serum apolipoprotein CIII in cholesterol/cholic acid fed rats at 3 mg/kg peroral dose for 4 days. As to conditions: route oral. Type of assay: functional. Also noted: scale not given: the % may be the effect or the level left.
Assay [8] relates to Rattus norvegicus. The assay can be described thus: In vivo increase in HDL cholesterol in cholesterol/cholic acid fed rats at 3 mg/kg peroral dose for 4 days. Type of assay: functional. As to conditions: route oral.

For `COc1ccccc1NC(=O)N(CCCCC1CCCCC1)CCc1ccc(SC(C)(C)C(=O)O)cc1`, the result in the assay with Cricetinae gen. sp. [1] was inactive. The figures for the EC50 in assay [2], in assay [3] and in assay [4] were 320 nM, 1100 nM and 5 nM, respectively.
Consider `CC(C)(Sc1ccc(CCN(CCc2ccc(-c3ccccc3)cc2)C(=O)Nc2cc(Cl)cc(Cl)c2)cc1)C(=O)O`, for which, in the assay on Cricetinae gen. sp. [1], the outcome was inactive. Also, the EC50 in assay [2] is 2000 nM; in assay [3] it was greater than 10000 nM; in assay [4], 50 nM.
As to `CC(C)(Sc1ccc(CCN(CCCCC2CCCCC2)C(=O)Nc2cccc(C#N)c2)cc1)C(=O)O`, in the assay with Cricetinae gen. sp. [5], the Activity was -69%. Also, the EC50 is 1000 nM in assay [2], greater than 10000 nM in assay [3] and 9 nM in assay [4].
Consider `COc1ccc(NC(=O)N(CCc2ccc(SC(C)(C)C(=O)O)cc2)CCc2ccc(-c3ccccc3)cc2)c(OC)c1`, for which the outcome in the assay with Cricetinae gen. sp. [1] was inactive. Moreover, the EC50 in assay [2] is 1200 nM; in assay [3], 4000 nM; in assay [4] it was 6 nM.
For `CCCCCCCN(CCc1ccc(SC(C)(C)C(=O)O)cc1)C(=O)Nc1ccc(F)cc1F` [GSK-9578], in the assay on Cricetinae gen. sp. [5], the Activity is reported as -88%.
Take `CC(C)(Sc1ccc(CCN(CCCCC2CCCCC2)C(=O)Nc2cc(Cl)cc(Cl)c2)cc1)C(=O)O`: the outcome with Cricetinae gen. sp. [1] was inactive. The EC50 in assay [2] is 1000 nM; in assay [3], greater than 10000 nM; in assay [4] it was 1 nM.
As for `Cc1cc(C)c(NC(=O)N(CCc2ccc(SC(C)(C)C(=O)O)cc2)CCc2ccc(-c3ccccc3)cc2)cc1C`, the outcome in the assay with Cricetinae gen. sp. [1] was inactive. Also, the concentration for a half-maximal effect (EC50) in assay [2] is 1350 nM; in assay [3], greater than 10000 nM; in assay [4], 9 nM.
Take `COc1ccc(C)cc1NC(=O)N(CCc1ccc(SC(C)(C)C(=O)O)cc1)CCc1ccc(-c2ccccc2)cc1`: the Activity in the assay on Cricetinae gen. sp. [5] was -33%. The EC50 in assay [2] is 10000 nM; in assay [3], greater than 10000 nM; in assay [4] it was 100 nM.
In the case of `CC(C)c1ccc(NC(=O)N(CCc2ccc(SC(C)(C)C(=O)O)cc2)CCc2ccc(-c3ccccc3)cc2)cc1`, the result with Cricetinae gen. sp. [1] was inactive. The EC50 in assay [2] was 8500 nM and 1400 nM; in assay [3], > 10000 nM and 2000 nM; in assay [4] it was 17 nM and 20 nM.
For `CC(C)(Sc1ccc(CCN(CCc2ccc(-c3ccccc3)cc2)C(=O)NC2CCCCC2)cc1)C(=O)O`, the Activity with Cricetinae gen. sp. [5] is listed as -70%. Moreover, the EC50 is 2400 nM in assay [2], 5000 nM in assay [3] and 8 nM in assay [4].
Consider `CC(C)(Sc1ccc(CCN(CCCCC2CCCCC2)C(=O)NC2CCCCC2)cc1)C(=O)O` [GW7647], for which the Activity is given as -93% in the assay on Cricetinae gen. sp. [5], 60% in the assay with Rattus norvegicus [6], 40% with Rattus norvegicus [7] and 60% in the assay on Rattus norvegicus [8].
Turning to `Cc1ccc(NC(=O)N(CCCCC2CCCCC2)CCc2ccc(SC(C)(C)C(=O)O)cc2)cc1[N+](=O)[O-]`, in the assay with Cricetinae gen. sp. [5], the Activity was -78%. In addition, the 50% effective concentration (EC50) was 2000 nM in assay [2], greater than 10000 nM in assay [3] and 20 nM in assay [4].
